The source made the active and inactive calls. The rule behind the calls is not given here.
System: CCRIS mutagenicity, Ames/micronucleus/aberration tests
Assay: CCRIS mutagenicity studies

O=P(OC(CCl)CCl)(OC(CCl)CCl)OC(CCl)CCl
mutagenic call (Test System: AMES SALMONELLA TYPHIMURIUM, Strain/Indicator: TA97, Metabolic Activation: HAMSTER, LIVER, S-9, AROCLOR 1254 (10%), Method: PREINCUBATION): active; positive | mutagenic call (Test System: AMES SALMONELLA TYPHIMURIUM, Strain/Indicator: TA97, Metabolic Activation: NONE, Method: PREINCUBATION): inactive; negative | mutagenic call (Test System: AMES SALMONELLA TYPHIMURIUM, Strain/Indicator: TA97, Metabolic Activation: RAT, LIVER, S-9, AROCLOR 1254 (10%), Method: PREINCUBATION): inactive; negative | mutagenic call (Test System: AMES SALMONELLA TYPHIMURIUM, Strain/Indicator: TA98, Metabolic Activation: HAMSTER, LIVER, S-9, AROCLOR 1254 (10%), Method: PREINCUBATION): inactive; negative | mutagenic call (Test System: AMES SALMONELLA TYPHIMURIUM, Strain/Indicator: TA98, Metabolic Activation: NONE, Method: PREINCUBATION): inactive; negative | mutagenic call (Test System: AMES SALMONELLA TYPHIMURIUM, Strain/Indicator: TA98, Metabolic Activation: RAT, LIVER, S-9, AROCLOR 1254 (10%), Method: PREINCUBATION): inactive; negative | mutagenic call (Test System: AMES SALMONELLA TYPHIMURIUM, Strain/Indicator: TA100, Metabolic Activation: HAMSTER, LIVER, S-9, AROCLOR 1254 (10%), Method: PREINCUBATION): active; positive | mutagenic call (Test System: AMES SALMONELLA TYPHIMURIUM, Strain/Indicator: TA100, Metabolic Activation: NONE, Method: PREINCUBATION): inactive; negative | mutagenic call (Test System: AMES SALMONELLA TYPHIMURIUM, Strain/Indicator: TA100, Metabolic Activation: RAT, LIVER, HEPATOCYTES, PHENOBARBITAL, Method: PREINCUBATION): inactive; negative | mutagenic call (Test System: AMES SALMONELLA TYPHIMURIUM, Strain/Indicator: TA100, Metabolic Activation: RAT, LIVER, HEPATOCYTES, Method: PREINCUBATION): active; positive | mutagenic call (Test System: AMES SALMONELLA TYPHIMURIUM, Strain/Indicator: TA100, Metabolic Activation: RAT, LIVER, MICROSOMES, PHENOBARBITAL, Method: STANDARD PLATE): active; positive | mutagenic call (Test System: AMES SALMONELLA TYPHIMURIUM, Strain/Indicator: TA100, Metabolic Activation: RAT, LIVER, S-9, AROCLOR 1254 (10%), Method: PREINCUBATION): inactive; negative | mutagenic call (Test System: AMES SALMONELLA TYPHIMURIUM, Strain/Indicator: TA100, Metabolic Activation: RAT, LIVER, S-9, PHENOBARBITAL, Method: STANDARD PLATE): active; positive | mutagenic call (Test System: AMES SALMONELLA TYPHIMURIUM, Strain/Indicator: TA100, Metabolic Activation: RAT, LIVER, S-9, Method: STANDARD PLATE): inactive; negative | mutagenic call (Test System: AMES SALMONELLA TYPHIMURIUM, Strain/Indicator: TA1535, Metabolic Activation: HAMSTER, LIVER, S-9, AROCLOR 1254 (10%), Method: PREINCUBATION): active; positive | mutagenic call (Test System: AMES SALMONELLA TYPHIMURIUM, Strain/Indicator: TA1535, Metabolic Activation: NONE, Method: PREINCUBATION): inactive; negative | mutagenic call (Test System: AMES SALMONELLA TYPHIMURIUM, Strain/Indicator: TA1535, Metabolic Activation: RAT, LIVER, S-9, AROCLOR 1254 (10%), Method: PREINCUBATION): active; positive | mutagenic call (Test System: AMES SALMONELLA TYPHIMURIUM, Strain/Indicator: TA1537, Metabolic Activation: HAMSTER, LIVER, S-9, AROCLOR 1254 (10%), Method: PREINCUBATION): inactive; negative | mutagenic call (Test System: AMES SALMONELLA TYPHIMURIUM, Strain/Indicator: TA1537, Metabolic Activation: NONE, Method: PREINCUBATION): inactive; negative | mutagenic call (Test System: AMES SALMONELLA TYPHIMURIUM, Strain/Indicator: TA1537, Metabolic Activation: RAT, LIVER, S-9, AROCLOR 1254 (10%), Method: PREINCUBATION): inactive; negative | mutagenic call (Test System: CHINESE HAMSTER V-79, Strain/Indicator: V-79/6-THIOGUANINE, Metabolic Activation: RAT, LIVER, MICROSOMES, PHENOBARBITAL): inactive; negative | mutagenic call (Test System: UDS RODENT HEPATOCYTES, Strain/Indicator: THY INCORP (NON-S-PHASE), Metabolic Activation: RAT, LIVER, HEPATOCYTES, PHENOBARBITAL, Method: LIQUID SCINTILLATION COUNTING): inactive; negative | mutagenic call (Test System: UDS RODENT HEPATOCYTES, Strain/Indicator: THY INCORP (NON-S-PHASE), Metabolic Activation: RAT, LIVER, HEPATOCYTES, Method: LIQUID SCINTILLATION COUNTING): inactive; negative

CCOP(=O)(OCC)N1[C@@H]2c3ccccc3-c3ccccc3[C@@H]21 (stereo not given in full)
mutagenic call (Test System: AMES SALMONELLA TYPHIMURIUM, Strain/Indicator: TA100, Metabolic Activation: NONE, Method: STANDARD PLATE): active; positive | mutagenic call (Test System: CHINESE HAMSTER V-79, Strain/Indicator: V-79/6-THIOGUANINE, Metabolic Activation: NONE, Method: STANDARD PLATE): active; positive

— PubChem BioAssay AID1259407 (Chemical Carcinogenesis Research Information System (CCRIS), 2018)
